Experimental data taken from patent US20150141340A1, “METHOD OF TREATING AND PREVENTING OCULAR ANGIOGENESIS” (Yale University, priority 2012, published 2015).

Experiments:
[1] = test system: ischemia triggered neovascularization; assay: Retinopathy of prematurity model (ROP); assay type: in vivo, mouse; conditions: administration 2 days after switching from hyperoxia to room air; vs AP injected eyes
Description: Next, cavtratin was tested in an additional model of ocular angiogenesis, retinopathy of prematurity model (ROP). Exposure to hyperoxia during early retinal development leads to the arrest or retardation of normal retinal vascular development. When the animals are returned to the normoxic environment, they are under a relative hypoxic situation where the retina now lacks its normal vasculature that is required to adequately support the neural tissue in normoxic conditions. This ischemic situation results in unregulated, abnormal neovascularization. The neovascular response is very consistent, reproducible and quantifiable, and it has become integral model for studying disease mechanisms and potential treatments for ischemic retinopathy. The mouse ROP model has become the most common model for studying pathologic angiogenesis and has been extended to the general study of ischemic retinopathies and related anti-angiogenic treatments. […] Cavtratin induced attenuation of ischemia triggered neovascularization is shown in FIG. 8, where the left panels are representative of two AP injected eyes and right panels are from cavtratin injections.

[2] = test system: choroidal neovascularization (CNV); assay: Laser-induced choroidal neovascularization (CNV) model, isolectin b4 labeling; assay type: in vivo, mice
Description: Experiments were designed to examine whether treatment with cavtratin is useful in disease models of excessive ocular angiogenesis. To induce choroidal neovascularization (CNV), a model for retinal angiogenesis in mice, three 532 nm diode laser spots were applied to each fundus of the eye using a coverslip as a contact lens. The lesions were placed between the retinal vessels 2-3 disc diameters from the optic nerve. Formation of a bubble indicates rupture of the Bruch's membrane, a critical factor in driving CNV. Cavtratin was dissolved into acetic acid and diluted into saline. […] After treatment and injury, CNV was visualized by immunofluorescent labeling with isolectin b4, a marker for angiogenic blood vessels. CNV area was quantified as isolectin positive vessels per area measured.
Since mechanistically cavtratin reduces vascular permeability, vascular leakage was examined after CNV damage.
Further, it was examined whether the effects of cavtratin treatment synergizes with anti-VEGF. Mice were injected with either cavtratin (0.05 nmol) one day prior to laser damage, anti-VEGF (5 μg) 2 days after damage, or were treated with both cavtratin and anti-VEGF.

For “cavtratin: fusion peptide comprising an antennapedia homeodomain internalization sequence fused to a caveolin-1 scaffolding domain; SEQ ID NO: 13 (RQIKIWFQNRRMKWKKDGIWKASFTTFTVTKYWFYR; Antennapedia-caveolin-1 scaffolding domain fusion peptide)”, the ischemia triggered neovascularization [1] was “attenuation of extensive, ischemia triggered neovascualization”, the “CNV area (isolectin positive vessels per area measured)” value ([2]; 0.5 nmol intraocular (1 microliter) prior to laser damage and again 2 days after, sacrificed after 4 additional days, vs AP control, N=17-18 eyes, P<0.05) was “reduced CNV” and the “CNV, dose dependence” value ([2]; anti-VEGF administration as comparator (FIG. 3, FIG. 4), reduced to a level comparable to anti-VEGF) was “dose-dependently reduces CNV”.
